The values below come from patent EP0247482A2, “Hardened reagent coatings, and processes for the preparation thereof” (priority 1986, dated 1987).

Structures are written as SMILES.

The data set deals with casein. The note with it: pH 7. The protocol: A 10 % strength casein solution is prepared in water by adding sodium hydroxide solution. 0.1 g of tartrazine is added to 100 ml of solution as filter dyestuff. Before pouring, various samples of the solution of 3 % by weight of each of the compounds 22, 19, 20, 21, 24, 25, 30, 31, 37, 41, 44, 45, 50, 52, 53, 55 and 56, dissolved in water, are added at a pH of 7.
In the case of `NC(=O)c1ccc[n+](C(=O)N2CCOCC2)c1` [Compound 19], the “hardened filter foils, solubility in alkaline water after drying” value (“hardened filter foils, solubility” below) is reported as “no longer dissolve in alkaline water”.
The result for `O=C(N1CCOCC1)[n+]1cccc(S(=O)(=O)[O-])c1` [Compound 45] reads “no longer dissolve in alkaline water”.
The result for `CCN(CC)C(=O)[n+]1ccc(CCS(=O)(=O)[O-])cc1` [Compound 50] reads “no longer dissolve in alkaline water”; that for `Cc1ccc(N(C)C(=O)[n+]2ccc(CCS(=O)(=O)[O-])cc2)cc1` [Compound 52], “no longer dissolve in alkaline water”.
Take `O=C(N1CCCCC1)[n+]1ccc(CCS(=O)(=O)[O-])cc1` [Compound 53]: the “hardened filter foils, solubility” value was “no longer dissolve in alkaline water”.
With `O=C(N1CCOCC1)[n+]1ccc(CCS(=O)(=O)[O-])cc1` [Compound 55] the entry was “no longer dissolve in alkaline water”.
As to `O=C(N1CCOCC1)[n+]1cccc(CCS(=O)(=O)[O-])c1` [Compound 56], the “hardened filter foils, solubility” value is “no longer dissolve in alkaline water”.
